Experimental data published in ChEMBL document CHEMBL4028801, “A multifactorial approach to hepatobiliary transporter assessment enables improved therapeutic compound development” (Toxicol Sci, 2013).
Structures can show the parent of a compound that is named as a salt.

Columns and labels:
Bile salt export pump = Bile salt export pump (Homo sapiens, UniProt O95342); assay: Inhibition of human BSEP overexpressed in Sf9 cell membrane vesicles assessed as uptake of [3H]-taurocholate in presence of ATP measured after 15 to 20 mins by membrane vesicle transport assay; format: ADME, cell-based
[1] = biological target: ATP-binding cassette sub-family C member 2 (Homo sapiens, UniProt Q92887); assay: Inhibition of human MRP2 overexpressed in Sf9 cell membrane vesicles assessed as uptake of [3H]-estradiol-17beta-D-glucuronide in presence of ATP and GSH measured after 20 mins by membrane vesicle transport assay
[2] = biological target: ATP-binding cassette sub-family C member 3 (Homo sapiens, UniProt O15438); assay: Inhibition of human MRP3 overexpressed in Sf9 insect cell membrane vesicles assessed as uptake of [3H]-estradiol-17beta-D-glucuronide in presence of ATP and GSH measured after 10 mins by membrane vesicle transport assay; format: ADME, cell-based
[3] = biological target: T1, ATP-binding cassette sub-family C member 4 (Homo sapiens, UniProt O15439); assay: Inhibition of human MRP4 overexpressed in Sf9 cell membrane vesicles assessed as uptake of [3H]-estradiol-17beta-D-glucuronide in presence of ATP and GSH measured after 20 mins by membrane vesicle transport assay; format: ADME, cell-based
T1 sequence (O15439 whole entry): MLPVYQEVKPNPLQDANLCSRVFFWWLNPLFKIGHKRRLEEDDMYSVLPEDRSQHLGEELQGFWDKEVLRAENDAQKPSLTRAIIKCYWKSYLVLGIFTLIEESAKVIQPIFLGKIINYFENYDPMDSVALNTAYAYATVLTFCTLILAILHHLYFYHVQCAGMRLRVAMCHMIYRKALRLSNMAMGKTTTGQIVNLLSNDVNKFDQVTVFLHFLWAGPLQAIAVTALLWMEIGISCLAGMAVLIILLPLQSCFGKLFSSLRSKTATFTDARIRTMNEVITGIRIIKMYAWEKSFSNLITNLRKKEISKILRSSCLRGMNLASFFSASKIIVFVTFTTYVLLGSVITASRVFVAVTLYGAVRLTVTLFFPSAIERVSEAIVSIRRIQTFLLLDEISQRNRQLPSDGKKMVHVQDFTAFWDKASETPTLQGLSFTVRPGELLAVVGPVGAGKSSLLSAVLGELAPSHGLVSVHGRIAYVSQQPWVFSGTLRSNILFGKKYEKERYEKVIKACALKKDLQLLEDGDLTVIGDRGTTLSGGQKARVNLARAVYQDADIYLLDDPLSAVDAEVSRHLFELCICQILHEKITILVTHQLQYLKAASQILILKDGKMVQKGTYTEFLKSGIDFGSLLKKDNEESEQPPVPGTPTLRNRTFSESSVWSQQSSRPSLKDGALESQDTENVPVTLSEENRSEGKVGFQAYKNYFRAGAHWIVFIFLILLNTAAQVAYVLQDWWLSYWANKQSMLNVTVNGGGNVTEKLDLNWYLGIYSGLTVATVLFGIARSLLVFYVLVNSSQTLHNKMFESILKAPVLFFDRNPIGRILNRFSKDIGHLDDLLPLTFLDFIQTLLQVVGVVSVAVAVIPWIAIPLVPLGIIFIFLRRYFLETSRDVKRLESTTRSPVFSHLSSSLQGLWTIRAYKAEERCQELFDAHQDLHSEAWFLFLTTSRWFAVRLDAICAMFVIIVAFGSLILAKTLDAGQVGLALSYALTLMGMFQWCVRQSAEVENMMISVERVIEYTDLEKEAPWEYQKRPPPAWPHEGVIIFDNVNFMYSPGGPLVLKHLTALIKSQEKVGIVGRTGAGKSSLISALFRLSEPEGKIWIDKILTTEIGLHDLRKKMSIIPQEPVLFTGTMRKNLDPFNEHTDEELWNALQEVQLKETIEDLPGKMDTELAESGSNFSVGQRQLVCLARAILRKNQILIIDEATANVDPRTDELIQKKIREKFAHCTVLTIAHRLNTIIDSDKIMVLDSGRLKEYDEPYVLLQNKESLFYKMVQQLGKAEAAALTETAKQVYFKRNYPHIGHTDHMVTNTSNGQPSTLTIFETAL

Chain of Bile salt export pump (O95342 whole entry): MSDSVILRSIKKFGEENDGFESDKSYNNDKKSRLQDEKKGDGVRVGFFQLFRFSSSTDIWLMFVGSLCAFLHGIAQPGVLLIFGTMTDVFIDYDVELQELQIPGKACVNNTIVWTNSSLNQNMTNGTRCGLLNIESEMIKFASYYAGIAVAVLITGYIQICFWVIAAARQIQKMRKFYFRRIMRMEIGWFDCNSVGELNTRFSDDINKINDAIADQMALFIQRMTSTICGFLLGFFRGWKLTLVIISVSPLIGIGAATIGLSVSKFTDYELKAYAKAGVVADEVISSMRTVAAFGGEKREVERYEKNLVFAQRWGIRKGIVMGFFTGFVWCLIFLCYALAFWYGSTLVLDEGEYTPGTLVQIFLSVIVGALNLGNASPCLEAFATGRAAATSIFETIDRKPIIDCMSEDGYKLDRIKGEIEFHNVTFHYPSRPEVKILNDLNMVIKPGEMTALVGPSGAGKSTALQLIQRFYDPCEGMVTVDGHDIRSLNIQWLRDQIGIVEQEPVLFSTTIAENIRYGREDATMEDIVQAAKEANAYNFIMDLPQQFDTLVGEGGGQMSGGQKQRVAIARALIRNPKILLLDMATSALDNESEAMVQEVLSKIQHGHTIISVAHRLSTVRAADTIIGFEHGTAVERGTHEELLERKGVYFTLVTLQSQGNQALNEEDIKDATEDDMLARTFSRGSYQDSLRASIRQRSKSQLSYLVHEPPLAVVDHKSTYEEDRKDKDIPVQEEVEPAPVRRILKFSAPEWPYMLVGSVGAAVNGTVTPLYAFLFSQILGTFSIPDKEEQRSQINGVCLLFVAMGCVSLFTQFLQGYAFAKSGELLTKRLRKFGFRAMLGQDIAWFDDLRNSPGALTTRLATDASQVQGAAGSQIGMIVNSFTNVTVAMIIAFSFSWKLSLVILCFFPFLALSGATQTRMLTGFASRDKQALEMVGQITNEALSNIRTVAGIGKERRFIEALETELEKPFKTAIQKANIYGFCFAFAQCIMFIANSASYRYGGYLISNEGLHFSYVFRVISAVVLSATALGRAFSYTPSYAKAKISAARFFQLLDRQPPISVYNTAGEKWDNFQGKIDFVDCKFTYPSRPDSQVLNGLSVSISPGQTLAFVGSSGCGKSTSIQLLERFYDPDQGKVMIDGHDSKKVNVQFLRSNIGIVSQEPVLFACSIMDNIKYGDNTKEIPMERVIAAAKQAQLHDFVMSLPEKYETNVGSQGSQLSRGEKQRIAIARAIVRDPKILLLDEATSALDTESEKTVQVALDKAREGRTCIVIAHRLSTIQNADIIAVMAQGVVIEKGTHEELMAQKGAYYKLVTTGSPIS
Chain of ATP-binding cassette sub-family C member 2 (Q92887 whole entry): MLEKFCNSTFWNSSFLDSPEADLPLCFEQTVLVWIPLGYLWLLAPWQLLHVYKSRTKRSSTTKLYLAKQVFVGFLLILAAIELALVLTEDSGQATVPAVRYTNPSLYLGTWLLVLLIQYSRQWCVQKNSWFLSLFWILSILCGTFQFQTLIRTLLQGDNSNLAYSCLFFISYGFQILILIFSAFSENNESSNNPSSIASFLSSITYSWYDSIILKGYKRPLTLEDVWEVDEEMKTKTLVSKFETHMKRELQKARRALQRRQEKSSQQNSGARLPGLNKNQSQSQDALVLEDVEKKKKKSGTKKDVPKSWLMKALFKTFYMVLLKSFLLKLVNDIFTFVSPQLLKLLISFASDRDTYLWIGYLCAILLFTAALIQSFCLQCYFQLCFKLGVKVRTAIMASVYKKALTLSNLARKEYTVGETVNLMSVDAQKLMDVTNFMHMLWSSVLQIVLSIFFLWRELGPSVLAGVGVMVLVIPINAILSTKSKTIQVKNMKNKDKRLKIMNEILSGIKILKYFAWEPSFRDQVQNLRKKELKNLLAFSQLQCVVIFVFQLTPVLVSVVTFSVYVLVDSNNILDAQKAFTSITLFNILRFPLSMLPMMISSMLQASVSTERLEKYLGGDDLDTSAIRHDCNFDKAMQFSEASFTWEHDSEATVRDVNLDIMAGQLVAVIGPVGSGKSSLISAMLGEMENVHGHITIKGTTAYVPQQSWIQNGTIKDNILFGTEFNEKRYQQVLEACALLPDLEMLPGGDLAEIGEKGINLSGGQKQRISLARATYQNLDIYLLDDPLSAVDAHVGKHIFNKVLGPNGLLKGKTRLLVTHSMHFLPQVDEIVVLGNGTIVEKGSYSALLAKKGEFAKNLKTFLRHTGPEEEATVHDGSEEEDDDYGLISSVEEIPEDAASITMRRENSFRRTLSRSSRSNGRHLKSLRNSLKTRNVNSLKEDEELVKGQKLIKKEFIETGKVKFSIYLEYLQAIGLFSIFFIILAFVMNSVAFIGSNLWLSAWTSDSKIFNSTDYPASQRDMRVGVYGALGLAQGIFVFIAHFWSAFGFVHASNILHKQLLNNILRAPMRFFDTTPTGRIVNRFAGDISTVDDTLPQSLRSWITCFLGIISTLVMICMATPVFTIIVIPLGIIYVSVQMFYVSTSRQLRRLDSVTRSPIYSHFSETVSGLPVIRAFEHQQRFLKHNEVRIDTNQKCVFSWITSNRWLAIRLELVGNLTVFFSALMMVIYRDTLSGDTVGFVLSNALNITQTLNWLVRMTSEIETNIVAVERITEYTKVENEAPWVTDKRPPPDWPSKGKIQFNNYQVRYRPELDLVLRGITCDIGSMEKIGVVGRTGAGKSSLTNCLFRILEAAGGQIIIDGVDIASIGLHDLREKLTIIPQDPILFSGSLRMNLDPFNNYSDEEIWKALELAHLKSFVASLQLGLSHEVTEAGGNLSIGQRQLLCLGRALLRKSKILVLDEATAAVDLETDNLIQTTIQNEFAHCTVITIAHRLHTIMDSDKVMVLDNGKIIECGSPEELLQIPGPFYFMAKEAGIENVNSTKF
Chain of ATP-binding cassette sub-family C member 3 (O15438 whole entry): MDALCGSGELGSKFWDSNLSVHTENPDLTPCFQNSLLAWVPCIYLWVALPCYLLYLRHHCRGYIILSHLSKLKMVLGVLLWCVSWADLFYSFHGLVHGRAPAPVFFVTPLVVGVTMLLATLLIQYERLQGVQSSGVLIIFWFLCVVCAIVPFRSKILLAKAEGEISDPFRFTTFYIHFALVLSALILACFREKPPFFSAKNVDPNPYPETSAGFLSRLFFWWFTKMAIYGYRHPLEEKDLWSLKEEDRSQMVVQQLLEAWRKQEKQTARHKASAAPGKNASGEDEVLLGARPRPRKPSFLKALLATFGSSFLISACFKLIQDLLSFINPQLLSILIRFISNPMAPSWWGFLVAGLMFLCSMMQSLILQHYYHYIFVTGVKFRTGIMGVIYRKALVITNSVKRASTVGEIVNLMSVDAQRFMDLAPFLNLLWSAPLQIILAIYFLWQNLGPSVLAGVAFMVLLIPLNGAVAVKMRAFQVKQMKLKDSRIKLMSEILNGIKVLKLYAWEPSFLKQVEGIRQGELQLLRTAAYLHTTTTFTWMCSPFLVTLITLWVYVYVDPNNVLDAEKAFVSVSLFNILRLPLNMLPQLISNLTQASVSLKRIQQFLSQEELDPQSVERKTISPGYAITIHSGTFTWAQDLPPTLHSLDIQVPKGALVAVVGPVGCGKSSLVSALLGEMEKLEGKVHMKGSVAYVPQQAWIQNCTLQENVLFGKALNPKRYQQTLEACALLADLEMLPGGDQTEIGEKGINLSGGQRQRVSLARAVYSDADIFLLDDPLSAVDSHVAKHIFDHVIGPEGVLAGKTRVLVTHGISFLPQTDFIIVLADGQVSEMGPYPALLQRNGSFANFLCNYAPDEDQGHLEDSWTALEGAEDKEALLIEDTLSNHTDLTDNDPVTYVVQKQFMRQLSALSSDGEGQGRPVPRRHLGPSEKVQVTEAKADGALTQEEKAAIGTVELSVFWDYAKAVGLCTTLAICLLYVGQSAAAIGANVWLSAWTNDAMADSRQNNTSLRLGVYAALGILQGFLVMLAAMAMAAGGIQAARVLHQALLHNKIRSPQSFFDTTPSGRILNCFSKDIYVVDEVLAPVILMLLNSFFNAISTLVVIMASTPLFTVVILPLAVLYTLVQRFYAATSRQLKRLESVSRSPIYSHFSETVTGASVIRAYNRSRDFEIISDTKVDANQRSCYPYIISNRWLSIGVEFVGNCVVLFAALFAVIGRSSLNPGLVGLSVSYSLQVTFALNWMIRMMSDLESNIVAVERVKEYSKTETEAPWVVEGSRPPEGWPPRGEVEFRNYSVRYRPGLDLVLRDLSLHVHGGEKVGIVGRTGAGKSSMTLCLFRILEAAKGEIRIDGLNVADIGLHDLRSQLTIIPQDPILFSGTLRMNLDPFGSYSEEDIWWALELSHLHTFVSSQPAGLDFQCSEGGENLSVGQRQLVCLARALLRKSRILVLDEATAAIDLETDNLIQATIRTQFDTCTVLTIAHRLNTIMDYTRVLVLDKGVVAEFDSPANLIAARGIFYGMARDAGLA

Row | Compound | IC50 (Bile salt export pump) | IC50 [1] | IC50 [2] | IC50 [3]
1 | CC(C)OC(=O)OCOP(=O)(CO[C@H](C)Cn1cnc2c(N)ncnc21)OCOC(=O)OC(C)C [TENOFOVIR DISOPROXIL FUMARATE] | > 133 µM | > 133 µM | > 133 µM | > 133 µM
2 | CN1C(C(=O)Nc2ccccn2)=C(O)c2sccc2S1(=O)=O [TENOXICAM] | > 133 µM | > 133 µM | > 133 µM | > 133 µM
3 | COc1cc2nc(N3CCN(C(=O)C4CCCO4)CC3)nc(N)c2cc1OC (centres undefined) [TERAZOSIN] | > 133 µM | > 133 µM | > 133 µM | 36.8 µM
4 | CN(C/C=C/C#CC(C)(C)C)Cc1cccc2ccccc12 [TERBINAFINE HYDROCHLORIDE] | > 133 µM | > 133 µM | > 133 µM | > 133 µM
5 | CC(C)(C)NCC(O)c1cc(O)cc(O)c1 (centres undefined) [TERBUTALINE] | > 133 µM | > 133 µM | > 133 µM | > 133 µM
6 | CC(C)(C)c1ccc(C(O)CCCN2CCC(C(O)(c3ccccc3)c3ccccc3)CC2)cc1 (centres undefined) [TERFENADINE] | > 133 µM | > 133 µM | > 133 µM | > 133 µM
7 | Cn1c(=O)c2[nH]cnc2n(C)c1=O [THEOPHYLLINE] | > 133 µM | > 133 µM | > 133 µM | > 133 µM
8 | CS(=O)(=O)c1ccc([C@@H](O)[C@@H](CO)NC(=O)C(Cl)Cl)cc1 [THIAMPHENICOL] | > 133 µM | > 133 µM | > 133 µM | > 133 µM
9 | S=P(N1CC1)(N1CC1)N1CC1 [THIOTEPA] | > 133 µM | > 133 µM | > 133 µM | > 133 µM
10 | CCN(CC)CCNC(=O)c1cc(S(C)(=O)=O)ccc1OC [TIAPRIDE] | > 133 µM | > 133 µM | > 133 µM | > 133 µM
11 | CN(C)c1cc(NC(=O)CNC(C)(C)C)c(O)c2c1C[C@H]1C[C@H]3[C@H](N(C)C)C(O)=C(C(N)=O)C(=O)[C@@]3(O)C(O)=C1C2=O [TIGECYCLINE] | > 133 µM | > 133 µM | > 133 µM | > 133 µM
12 | CCN(CC)CCOc1ccc2c(c1)C(=O)c1cc(OCCN(CC)CC)ccc1-2 [TILORONE] | > 133 µM | > 133 µM | > 133 µM | > 133 µM
13 | CC(C)(C)NC[C@H](O)COc1nsnc1N1CCOCC1 [TIMOLOL] | > 133 µM | > 133 µM | > 133 µM | > 133 µM
14 | Clc1ccc2nsnc2c1NC1=NCCN1 [TIZANIDINE] | > 133 µM | > 133 µM | > 133 µM | > 133 µM
15 | NC[C@H]1O[C@H](O[C@H]2[C@H](O)[C@@H](O[C@H]3O[C@H](CO)[C@@H](O)[C@H](N)[C@H]3O)[C@H](N)C[C@@H]2N)[C@H](N)C[C@@H]1O [TOBRAMYCIN] | > 133 µM | > 133 µM | > 133 µM | > 133 µM
16 | C[C@@H]1CCN(C(=O)CC#N)C[C@@H]1N(C)c1ncnc2[nH]ccc12 [TOFACITINIB] | > 133 µM | > 133 µM | > 133 µM | > 133 µM
17 | CCCCNC(=O)NS(=O)(=O)c1ccc(C)cc1 [TOLBUTAMIDE] | > 133 µM | > 133 µM | > 133 µM | > 133 µM
18 | Cc1cccc(N(C)C(=S)Oc2ccc3ccccc3c2)c1 [TOLNAFTATE] | > 133 µM | > 133 µM | > 133 µM | > 133 µM

Row | Compound | IC50 (Bile salt export pump) | IC50 [1] | IC50 [2] | IC50 [3]
19 | CC1(C)O[C@@H]2[C@@H](CO[C@@]3(COS(N)(=O)=O)OC(C)(C)O[C@@H]23)O1 [TOPIRAMATE] | > 133 µM | > 133 µM | > 133 µM | > 133 µM
20 | CN(C)CCOc1ccc(/C(=C(/CCCl)c2ccccc2)c2ccccc2)cc1 [TOREMIFENE CITRATE] | 115 µM | > 133 µM | > 133 µM | > 133 µM
21 | CC(C)OC(=O)CCC/C=C\C[C@@H]1[C@@H](/C=C/[C@@H](O)COc2cccc(C(F)(F)F)c2)[C@H](O)C[C@@H]1O [TRAVOPROST] | 43.9 µM | > 133 µM | > 133 µM | 74 µM
22 | CC1=C(/C=C/C(C)=C/C=C/C(C)=C/C(=O)O)C(C)(C)CCC1 [TRETINOIN] | > 133 µM | > 133 µM | > 133 µM | > 133 µM
23 | CC1(C)O[C@@H]2C[C@H]3[C@@H]4CCC5=CC(=O)C=C[C@]5(C)[C@@]4(F)[C@@H](O)C[C@]3(C)[C@]2(C(=O)CO)O1 [TRIAMCINOLONE ACETONIDE] | > 133 µM | > 133 µM | > 133 µM | > 133 µM
24 | CC(=O)OCC(=O)[C@@]1(O)[C@H](OC(C)=O)C[C@H]2[C@@H]3CCC4=CC(=O)C=C[C@]4(C)[C@@]3(F)[C@@H](O)C[C@@]21C [TRIAMCINOLONE DIACETATE] | > 133 µM | > 133 µM | > 133 µM | > 133 µM
25 | C[C@]12CC[C@H]3[C@@H](CC[C@@]45O[C@@H]4C(O)=C(C#N)C[C@]35C)[C@@H]1CC[C@@H]2O [TRILOSTANE] | > 133 µM | > 133 µM | > 133 µM | > 133 µM
26 | COc1cc(Cc2cnc(N)nc2N)cc(OC)c1OC [TRIMETHOPRIM] | > 133 µM | > 133 µM | > 133 µM | > 133 µM
27 | COc1cc2c3cc1Oc1cc(ccc1O)C[C@@H]1c4c(cc(OC)c(O)c4Oc4ccc(cc4)C[C@@H]3N(C)CC2)CC[N+]1(C)C [TUBOCURARINE] | > 133 µM | > 133 µM | > 133 µM | 9.6 µM
28 | C=CCCCCCCCCC(=O)O [UNDECYLENIC ACID] | > 133 µM | > 133 µM | > 133 µM | 63.9 µM
29 | CC(C)[C@H](N)C(=O)OCCOCn1cnc2c(=O)[nH]c(N)nc21 [VALACYCLOVIR HYDROCHLORIDE] | > 133 µM | > 133 µM | > 133 µM | > 133 µM
30 | Cc1onc(-c2ccccc2)c1-c1ccc(S(N)(=O)=O)cc1 [VALDECOXIB] | > 133 µM | > 133 µM | > 133 µM | > 133 µM
31 | NC(=O)CC[C@@H]1NC(=O)[C@H](Cc2ccccc2)NC(=O)[C@H](Cc2ccc(O)cc2)NC(=O)[C@@H](N)CSSC[C@@H](C(=O)N2CCC[C@H]2C(=O)N[C@@H](CCCN=C(N)N)C(=O)NCC(N)=O)NC(=O)[C@H](CC(N)=O)NC1=O [VASOPRESSIN] | > 133 µM | > 133 µM | > 133 µM | > 133 µM
32 | CC(=O)O[C@H]1C[C@@H]2CC[C@@H]3[C@H](CC[C@@]4(C)[C@H]3C[C@H]([N+]3(C)CCCCC3)[C@@H]4OC(C)=O)[C@@]2(C)C[C@@H]1N1CCCCC1 [VECURONIUM BROMIDE] | > 133 µM | > 133 µM | > 133 µM | > 133 µM
33 | COc1ccc(C(CN(C)C)C2(O)CCCCC2)cc1 (centres undefined) [VENLAFAXINE] | > 133 µM | > 133 µM | > 133 µM | > 133 µM
34 | C=CC(N)CCC(=O)O (centres undefined) [VIGABATRIN] | > 133 µM | > 133 µM | > 133 µM | > 133 µM
35 | N#C[C@@H]1CCCN1C(=O)CNC12CC3CC(CC(O)(C3)C1)C2 [VILDAGLIPTIN] | > 133 µM | > 133 µM | > 133 µM | > 133 µM
36 | CC[C@]1(O)C[C@@H]2CN(CCc3c([nH]c4ccccc34)[C@@](C(=O)OC)(c3cc4c(cc3OC)N(C)[C@H]3[C@@](O)(C(=O)OC)[C@H](OC(C)=O)[C@]5(CC)C=CCN6CC[C@]43[C@@H]65)C2)C1 [VINBLASTINE] | > 133 µM | > 133 µM | > 133 µM | 35.1 µM
